The text below walks through data of PubChem BioAssay AID200 (DTP/NCI, 2004).

The structures appear in SMILES notation. Several values for one entry are separate records, joined by “and”; a condition that tells them apart may be missing. Equal values may be shown once. Inconclusive results and toxic doses are left out.

In the assay the test system is B6C3F1 mice, B16 melanoma ip, median survival T/C. The experiment in a line: NCI In Vivo Anticancer Drug Screen. Data for tumor model B16 Melanoma (intraperitoneal) in B6C3F1 mice. As to conditions: endpoint: median survival time, higher = longer survival. Summed up: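 Readout: survival or tumor size in treated mice relative to vehicle controls (T/C). Model uses transplantable tumors grown in mice.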

Setting [1] is: dose: 25.0 mg/kg/injection, schedule: Q01DX009 (ip), vehicle: saline with Tween-80.
Setting [2] is: dose: 50.0 mg/kg/injection, schedule: Q01DX009 (ip), vehicle: saline with Tween-80.
[3] abbreviates: dose: 100.0 mg/kg/injection, schedule: Q01DX009 (ip), vehicle: saline with Tween-80.
The mark [4] stands for this setting: dose: 200.0 mg/kg/injection, schedule: Q01DX009 (ip), vehicle: saline with Tween-80.
Where [5] appears, read: dose: 400.0 mg/kg/injection, schedule: Q01DX009 (ip), vehicle: saline with Tween-80.

Take `Cc1cn(C2CC(F)C(CO)O2)c(=O)[nH]c1=O` (stereo not drawn): the T/C is 117 % of control (dose: 125.0 mg/kg/injection, schedule: Q01DX009 (ip), vehicle: suspension in saline) and 116 % of control (dose: 250.0 mg/kg/injection, schedule: Q01DX009 (ip), vehicle: suspension in saline).
Turning to `CN(C)CCCN1c2ccccc2Sc2ccc(Cl)cc21`, the T/C is, setting by setting: (dose: 4.68 mg/kg/injection, schedule: Q01DX009 (ip), vehicle: saline) 92 % of control; (dose: 9.37 mg/kg/injection, schedule: Q01DX009 (ip), vehicle: saline) 104 % of control; (dose: 18.75 mg/kg/injection, schedule: Q01DX009 (ip), vehicle: saline) 105 % of control.
Take `NC(N)=NS(=O)(=O)c1ccc(NCc2c3ccccc3nc3ccccc23)cc1`: the T/C is, setting by setting: (dose: 25.0 mg/kg/injection, schedule: Q01DX009 (ip), vehicle: Klucel (hydroxypropylcellulose) (HPC)) 159 % of control; (dose: 50.0 mg/kg/injection, schedule: Q01DX009 (ip), vehicle: Klucel (hydroxypropylcellulose) (HPC)) 184 % of control; (dose: 100.0 mg/kg/injection, schedule: Q01DX009 (ip), vehicle: Klucel (hydroxypropylcellulose) (HPC)) 213 % of control; (dose: 200.0 mg/kg/injection, schedule: Q01DX009 (ip), vehicle: Klucel (hydroxypropylcellulose) (HPC)) 238 % of control; (dose: 400.0 mg/kg/injection, schedule: Q01DX009 (ip), vehicle: Klucel (hydroxypropylcellulose) (HPC)) 238 % of control; (dose: 800.0 mg/kg/injection, schedule: Q01DX009 (ip), vehicle: Klucel (hydroxypropylcellulose) (HPC)) 250 % of control.
As to `C[C@H](N)C(=O)N[C@@H]1[C@H]2C(=C(O)C[C@@H](O)[C@@H]2O)C(=O)O[C@]1(C)C(Cl)Cl`, the T/C runs as follows: (dose: 0.18 mg/kg/injection, schedule: Q01DX009 (ip), vehicle: Klucel (hydroxypropylcellulose) (HPC)) 95 % of control; (dose: 0.19 mg/kg/injection, schedule: Q01DX009 (ip), vehicle: Klucel (hydroxypropylcellulose) (HPC)) 100 % of control; (dose: 0.37 mg/kg/injection, schedule: Q01DX009 (ip), vehicle: Klucel (hydroxypropylcellulose) (HPC)) 101 % of control and 107 % of control; (dose: 0.38 mg/kg/injection, schedule: Q01DX009 (ip), vehicle: Klucel (hydroxypropylcellulose) (HPC)) 105 % of control; (dose: 0.75 mg/kg/injection, schedule: Q01DX009 (ip), vehicle: Klucel (hydroxypropylcellulose) (HPC)) 116 % of control and 104 % of control (2×); (dose: 1.5 mg/kg/injection, schedule: Q01DX009 (ip), vehicle: Klucel (hydroxypropylcellulose) (HPC)) 112 % of control and 113 % of control and 118 % of control.
Regarding `Cc1cc2c(C(C)C)c(O)c(O)c(C=O)c2c(O)c1-c1c(C)cc2c(C(C)C)c(O)c(O)c(C=O)c2c1O`, the T/C (dose: 0.38 mg/kg/injection, schedule: Q01DX009 (ip), vehicle: saline with Tween-80) was 97 % of control; the T/C (dose: 0.75 mg/kg/injection, schedule: Q01DX009 (ip), vehicle: saline with Tween-80) was 100 % of control; the T/C (dose: 1.5 mg/kg/injection, schedule: Q01DX009 (ip), vehicle: saline with Tween-80) is 98 % of control; the T/C (dose: 3.0 mg/kg/injection, schedule: Q01DX009 (ip), vehicle: saline with Tween-80) is 106 % of control.
On to `CC1(C)OCC2OC=CC(=O)C2O1` (stereo not drawn), for which the T/C was 102 % of control under setting [1]; 100 % of control under setting [2]; 97 % of control under setting [3]; 105 % of control under setting [4]; 95 % of control under setting [5].
In the case of `COc1cc(NS(C)(=O)=O)ccc1Nc1c2ccccc2nc2ccccc12`, the T/C was 166 % of control and 168 % of control (dose: 0.5 mg/kg/injection, schedule: Q01DX009 (ip), vehicle: other); 195 % of control (dose: 1.0 mg/kg/injection, schedule: Q01DX005 (ip), vehicle: other); 101 % of control (dose: 1.0 mg/kg/injection, schedule: Q01DX005 (iv), vehicle: other); 175 % of control (dose: 1.0 mg/kg/injection, schedule: Q01DX011 (ip), vehicle: saline with Tween-80); 177 % of control (dose: 2.0 mg/kg/injection, schedule: Q01DX005 (ip), vehicle: clinical formulation); 99 % of control (dose: 2.0 mg/kg/injection, schedule: Q01DX005 (iv), vehicle: clinical formulation). Besides, the T/C is 100 % of control (dose: 2.0 mg/kg/injection, schedule: Q01DX005 (oral), vehicle: other); 193 % of control (dose: 2.0 mg/kg/injection, schedule: Q01DX009 (ip), vehicle: saline with Tween-80); 209 % of control (dose: 2.0 mg/kg/injection, schedule: Q01DX011 (ip), vehicle: saline with Tween-80); 275 % of control (dose: 4.0 mg/kg/injection, schedule: Q01DX005 (ip), vehicle: clinical formulation); 104 % of control (dose: 4.0 mg/kg/injection, schedule: Q01DX005 (oral), vehicle: other); 253 % of control (dose: 4.0 mg/kg/injection, schedule: Q01DX009 (ip), vehicle: saline with Tween-80). Further, the T/C (dose: 4.0 mg/kg/injection, schedule: Q01DX009 (ip), vehicle: saline) was 187 % of control and 213 % of control and 222 % of control; the T/C (dose: 4.0 mg/kg/injection, schedule: Q01DX011 (ip), vehicle: saline with Tween-80) was 63 % of control; the T/C (dose: 4.0 mg/kg/injection, schedule: Q01DX011 (oral), vehicle: saline with Tween-80) is 98 % of control; the T/C (dose: 8.0 mg/kg/injection, schedule: Q01DX001 (iv), vehicle: clinical formulation) was 105 % of control; the T/C (dose: 8.0 mg/kg/injection, schedule: Q01DX005 (oral), vehicle: other) is 103 % of control; the T/C (dose: 8.0 mg/kg/injection, schedule: Q01DX009 (ip), vehicle: saline with Tween-80) was 283 % of control. The T/C is, setting by setting: (dose: 8.0 mg/kg/injection, schedule: Q01DX011 (oral), vehicle: saline with Tween-80) 92 % of control; (dose: 16.0 mg/kg/injection, schedule: Q01DX001 (iv), vehicle: clinical formulation) 112 % of control.
For the compound `Cn1nnc2c(C(N)=O)ncn2c1=O`, the T/C by setting is: (dose: 12.5 mg/kg/injection, schedule: Q01DX009 (ip), vehicle: suspension in saline) 113 % of control; (dose: 50.0 mg/kg/injection, schedule: Q01DX009 (ip), vehicle: suspension in saline) 167 % of control; (dose: 100.0 mg/kg/injection, schedule: Q01DX009 (ip), vehicle: saline) 181 % of control; (dose: 100.0 mg/kg/injection, schedule: Q01DX009 (ip), vehicle: suspension in saline) 206 % of control.
Consider `O=C(O)C(O)C(O)C1[O][Sb][O]C1C(=O)O` (stereo not drawn), for which the T/C runs as follows: (dose: 6.25 mg/kg/injection, schedule: Q01DX009 (ip), vehicle: saline) 96 % of control; (dose: 12.5 mg/kg/injection, schedule: Q01DX009 (ip), vehicle: saline) 97 % of control; (dose: 25.0 mg/kg/injection, schedule: Q01DX009 (ip), vehicle: saline) 104 % of control; (dose: 50.0 mg/kg/injection, schedule: Q01DX009 (ip), vehicle: saline) 107 % of control.
As to `Cc1ccc(C)c2c1CCC2C` (stereo not drawn), the T/C runs as follows: under setting [2], 93 % of control; under setting [3], 86 % of control.
In the case of `O=NN(CCF)C(=O)NC1C(O)CCCC1O` (stereo not drawn), the T/C by setting is: (dose: 7.5 mg/kg/injection, schedule: Q01DX001 (ip), vehicle: saline) 198 % of control; (dose: 15.0 mg/kg/injection, schedule: Q01DX001 (ip), vehicle: saline) 222 % of control; (dose: 30.0 mg/kg/injection, schedule: Q01DX001 (ip), vehicle: saline) 350 % of control; (dose: 60.0 mg/kg/injection, schedule: Q01DX001 (ip), vehicle: saline) 350 % of control.
Turning to `NC(=O)c1cc(Cl)nc2nc(Cl)nc(N)c12`, the T/C was 92 % of control under setting [1]; 101 % of control under setting [2]; 86 % of control under setting [3]; 98 % of control under setting [4]; 106 % of control under setting [5].
Consider `C/C=C1/C(=O)O[C@]23C=C[C@@H]4C(C(=O)OC)=CO[C@H](O[C@@H]12)[C@@H]43`, for which the T/C reads like this: (dose: 3.75 mg/kg/injection, schedule: Q01DX009 (ip), vehicle: Klucel (hydroxypropylcellulose) (HPC)) 102 % of control; (dose: 7.5 mg/kg/injection, schedule: Q01DX009 (ip), vehicle: Klucel (hydroxypropylcellulose) (HPC)) 91 % of control; (dose: 15.0 mg/kg/injection, schedule: Q01DX009 (ip), vehicle: Klucel (hydroxypropylcellulose) (HPC)) 98 % of control.
